In US20020002171A1, “Materials and methods for killing nematodes and nematode eggs” (priority 2000, published 2002):

Each compound was assayed on Caenorhabditis elegans (assay: C. elegans L1 nematicidal dose response in 96-well plates, 5 day visual score (Example 2; same procedure for Example 7, Table 3)). Conditions: Follow-up HTS run.
Assay type: in vivo
Description: Caenorhabditis elegans adults were grown on Nematode Growth Medium (NGM) until they produced eggs, then the adults were removed.
The eggs were allowed to hatch, and the L1 larvae collected. See The Nematode Caenorhabditis elegans (1988) Cold Spring Harbor Laboratory Press. Using a Matrix Programmable Pipette, the L1s were distributed into 96-well tissue culture plates, 20 L1 in 50 μl NGM per well. Antibiotic/Antimyoticwas added to each well, and 1% by weight E. coli strain HB101. The subject anthelmintic compounds were stored at 5 mM in 100% DMSO. 0.7 μl of compounds 1-31 were added to the left-most column of wells to yield a final concentration of 70 μM in 1.4% DMSO, with 1.4% DMSO only as the control. The compounds were then subjected to 5 more 3-fold dilutions from left to right to yield 6 column concentrations of 70 μM, 23.3 μM, 7.8 μM, 2.6 μM, 0.9 μM, and 0.3 μM. Plates were stored in air-tight Rubbermaid plastic boxes at 20° C. The nematodes had cleared all control wells by day 4, and nematode viability was scored by visual examination under a 100× dissecting microsope on day 5. A visual viability scoring system was used as follows:
Column V1 has a compound concentration of 70 μM with sequential 3-fold dilutions reported in columns V2, V3, V4, V5, and V6, respectively, such that the V6 concentration was 0.3 μM.
The nematicidal activity of anthelmintic Compositions 48-168 were determined in accordance with the procedure outlined in Example 2.

| SMILES | Follow-up HTS Run % Run [%] | Follow-up HTS Run mOD [mOD] |
| --- | --- | --- |
| CCOC(=O)CCN(Cc1ccccc1)c1nc(NCCc2ccc(F)cc2)ns1 [compound 242] | 87 | 140 |
| CCCN(CC1CC1)c1nc(N2CCN(c3ncccn3)CC2)ns1 [compound 222] | 126 | 203 |

Same assay, conditions: Initial HTS run

| SMILES | Initial HTS Run % Run [%] | Initial HTS Run Visual Score | Initial HTS Run mOD [mOD] |
| --- | --- | --- | --- |
| CCOC(=O)CCN(Cc1ccccc1)c1nc(NCCc2ccc(F)cc2)ns1 [compound 242] | 106 | Dead (L3?) | 117 |
| CCCN(CC1CC1)c1nc(N2CCN(c3ncccn3)CC2)ns1 [compound 222] | 106 | L2-Dead L3? | 117 |

Same assay, conditions: dose response, dilution V1, day 5

| SMILES | 5 Day Visual Score V1 |
| --- | --- |
| CCCN(CC1CC1)c1nc(N2CCN(c3ncccn3)CC2)ns1 [compound 222] | #AD/˜B |

Same assay, conditions: dose response, dilution V2, day 5

| SMILES | 5 Day Visual Score V2 |
| --- | --- |
| CCOC(=O)CCN(Cc1ccccc1)c1nc(NCCc2ccc(F)cc2)ns1 [compound 242] | B (low broodsize (25-100 progeny)) |
| CCCN(CC1CC1)c1nc(N2CCN(c3ncccn3)CC2)ns1 [compound 222] | OK (no effect (˜1000+ progeny)) |

Same assay, conditions: dose response, dilution V3, day 5

| SMILES | 5 Day Visual Score V3 |
| --- | --- |
| CCOC(=O)CCN(Cc1ccccc1)c1nc(NCCc2ccc(F)cc2)ns1 [compound 242] | OK (no effect (˜1000+ progeny)) |
| CCCN(CC1CC1)c1nc(N2CCN(c3ncccn3)CC2)ns1 [compound 222] | OK (no effect (˜1000+ progeny)) |

Same assay, conditions: dose response, dilution V4, day 5

| SMILES | 5 Day Visual Score V4 |
| --- | --- |
| CCOC(=O)CCN(Cc1ccccc1)c1nc(NCCc2ccc(F)cc2)ns1 [compound 242] | OK (no effect (˜1000+ progeny)) |
| CCCN(CC1CC1)c1nc(N2CCN(c3ncccn3)CC2)ns1 [compound 222] | OK (no effect (˜1000+ progeny)) |

Same assay, conditions: dose response, dilution V5, day 5

| SMILES | 5 Day Visual Score V5 |
| --- | --- |
| CCOC(=O)CCN(Cc1ccccc1)c1nc(NCCc2ccc(F)cc2)ns1 [compound 242] | OK (no effect (˜1000+ progeny)) |
| CCCN(CC1CC1)c1nc(N2CCN(c3ncccn3)CC2)ns1 [compound 222] | OK (no effect (˜1000+ progeny)) |

Same assay, conditions: dose response, dilution V6, day 5

| SMILES | 5 Day Visual Score V6 |
| --- | --- |
| CCOC(=O)CCN(Cc1ccccc1)c1nc(NCCc2ccc(F)cc2)ns1 [compound 242] | OK (no effect (˜1000+ progeny)) |
| CCCN(CC1CC1)c1nc(N2CCN(c3ncccn3)CC2)ns1 [compound 222] | OK (no effect (˜1000+ progeny)) |
